Reference: US9539260B2, “Dihydro-benzo-oxazine and dihydro-pyrido-oxazine derivatives” (Novartis AG, priority 2012, dated 2017)

Experiments:
PI3K alpha = PI3K alpha (Homo sapiens (Human), UniProt P42336); test: Enzymatic PI3K alpha isoform inhibition (lipid kinase activity, Kinase-Glo luminescence); assay type: biochemical; settings: Enzymatic assay
Summary of the method: (§1)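 ATP-depletion format: 10 nM PI3K with 5 μg/mL phosphatidylinositol and 2 μM ATP, run to ~50% ATP consumption, then Kinase-Glo added and remaining ATP read by luminescence after 5 min. IC50 from 4-parameter logistic fit, typically over 8 concentrations 10–0.003 μM.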

PI3K delta = PI3K delta (Homo sapiens (Human), UniProt O00329); test: Enzymatic PI3K delta isoform inhibition (lipid kinase activity, Kinase-Glo luminescence); assay type: biochemical; settings: Enzymatic assay
Summary of the method: as §1

PI3K alpha, sequence (P42336 other isoform, or with tags, fused parts or gaps): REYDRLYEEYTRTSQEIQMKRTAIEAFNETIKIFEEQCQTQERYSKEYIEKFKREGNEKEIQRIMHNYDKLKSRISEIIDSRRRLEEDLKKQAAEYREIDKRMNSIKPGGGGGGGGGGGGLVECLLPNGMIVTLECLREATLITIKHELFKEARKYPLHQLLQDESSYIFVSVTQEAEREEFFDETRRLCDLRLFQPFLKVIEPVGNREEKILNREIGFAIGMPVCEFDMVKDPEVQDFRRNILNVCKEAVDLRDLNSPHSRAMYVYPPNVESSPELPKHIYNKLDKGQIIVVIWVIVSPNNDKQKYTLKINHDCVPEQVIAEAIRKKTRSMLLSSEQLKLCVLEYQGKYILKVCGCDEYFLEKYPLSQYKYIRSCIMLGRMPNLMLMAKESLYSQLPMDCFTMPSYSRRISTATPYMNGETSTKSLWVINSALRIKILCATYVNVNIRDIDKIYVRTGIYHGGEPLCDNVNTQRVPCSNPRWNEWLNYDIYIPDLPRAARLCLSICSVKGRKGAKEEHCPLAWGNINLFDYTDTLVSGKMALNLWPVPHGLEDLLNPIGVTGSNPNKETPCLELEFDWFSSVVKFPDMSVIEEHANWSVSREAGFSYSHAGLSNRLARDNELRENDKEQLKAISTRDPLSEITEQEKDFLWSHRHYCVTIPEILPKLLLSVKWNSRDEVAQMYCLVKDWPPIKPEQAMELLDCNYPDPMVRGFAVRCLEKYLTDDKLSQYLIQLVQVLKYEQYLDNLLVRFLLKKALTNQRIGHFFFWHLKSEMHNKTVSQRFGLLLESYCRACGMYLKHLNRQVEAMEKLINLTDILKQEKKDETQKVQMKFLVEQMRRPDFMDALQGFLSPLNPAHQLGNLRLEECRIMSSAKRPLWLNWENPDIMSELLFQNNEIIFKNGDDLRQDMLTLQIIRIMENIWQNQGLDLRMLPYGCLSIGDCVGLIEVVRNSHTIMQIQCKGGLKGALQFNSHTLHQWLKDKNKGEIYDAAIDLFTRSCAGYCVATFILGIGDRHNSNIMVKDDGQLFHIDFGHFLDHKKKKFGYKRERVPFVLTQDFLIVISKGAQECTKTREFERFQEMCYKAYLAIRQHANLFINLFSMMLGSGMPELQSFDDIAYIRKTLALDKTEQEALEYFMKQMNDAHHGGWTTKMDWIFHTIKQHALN
PI3K delta, sequence (O00329 other isoform, or with tags, fused parts or gaps linker GGGGGG): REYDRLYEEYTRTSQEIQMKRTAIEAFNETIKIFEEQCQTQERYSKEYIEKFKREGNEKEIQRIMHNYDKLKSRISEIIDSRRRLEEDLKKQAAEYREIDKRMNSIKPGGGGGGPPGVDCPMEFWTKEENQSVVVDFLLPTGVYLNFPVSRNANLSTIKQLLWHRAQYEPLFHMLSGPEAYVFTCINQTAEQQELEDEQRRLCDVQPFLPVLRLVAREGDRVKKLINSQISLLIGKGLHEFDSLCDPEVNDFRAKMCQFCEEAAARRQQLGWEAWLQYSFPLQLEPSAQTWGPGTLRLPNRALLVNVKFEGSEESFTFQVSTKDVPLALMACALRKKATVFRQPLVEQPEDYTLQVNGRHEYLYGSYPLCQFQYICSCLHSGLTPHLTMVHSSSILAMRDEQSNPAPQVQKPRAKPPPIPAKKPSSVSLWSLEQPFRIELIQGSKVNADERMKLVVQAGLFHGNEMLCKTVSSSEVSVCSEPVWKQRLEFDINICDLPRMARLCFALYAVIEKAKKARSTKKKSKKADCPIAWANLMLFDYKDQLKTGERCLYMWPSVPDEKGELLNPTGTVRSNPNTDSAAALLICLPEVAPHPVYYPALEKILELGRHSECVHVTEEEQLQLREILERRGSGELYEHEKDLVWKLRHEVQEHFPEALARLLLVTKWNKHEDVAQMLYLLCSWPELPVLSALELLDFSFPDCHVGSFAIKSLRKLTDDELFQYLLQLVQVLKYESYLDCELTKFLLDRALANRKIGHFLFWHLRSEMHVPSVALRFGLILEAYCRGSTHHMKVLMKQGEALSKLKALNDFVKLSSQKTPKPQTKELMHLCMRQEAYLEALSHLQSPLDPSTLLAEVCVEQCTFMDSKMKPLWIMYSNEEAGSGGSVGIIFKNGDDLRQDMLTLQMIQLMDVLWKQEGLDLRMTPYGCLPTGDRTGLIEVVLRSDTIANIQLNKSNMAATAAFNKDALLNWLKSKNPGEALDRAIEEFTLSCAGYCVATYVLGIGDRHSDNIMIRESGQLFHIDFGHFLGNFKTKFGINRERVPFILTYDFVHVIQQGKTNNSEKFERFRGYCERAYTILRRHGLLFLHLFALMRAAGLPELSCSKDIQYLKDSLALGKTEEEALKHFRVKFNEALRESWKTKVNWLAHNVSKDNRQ

IC50 (PI3K alpha)	IC50 (PI3K delta)	SMILES
577 nM	3 nM	COc1ncc(N2CCOc3cnc(O[C@H]4CCN(C(=O)C5CCOCC5)C4)cc32)cc1C#N [Example F4, 2-Methoxy-5-{7-[(S)-1-(tetrahydro-pyran-4-carbonyl)-pyrrolidin-3-yloxy]-2,3-dihydro-pyrido[3,4-b][1,4]oxazin-1-yl}-nicotinonitrile]
444 nM	25 nM	COc1ncc(N2CCOc3cnc(O[C@H]4CCN(C(=O)c5cn(C)cn5)C4)cc32)cc1C#N [Example F5, 2-Methoxy-5-{7-[(S)-1-(1-methyl-1H-imidazole-4-carbonyl)-pyrrolidin-3-yloxy]-2,3-dihydro-pyrido[3,4-b][1,4]oxazin-1-yl}-nicotinonitrile]
783 nM	3 nM	Cc1cc(N2CCOc3cnc(O[C@H]4CCN(C(=O)C5CCOCC5)C4)cc32)cnc1S(C)(=O)=O [Example F6, {(S)-3-[1-(6-Methanesulfonyl-5-methyl-pyridin-3-yl)-2,3-dihydro-1H-pyrido[3,4-b][1,4]oxazin-7-yloxy]-pyrrolidin-1-yl}-(tetrahydro-pyran-4-yl)-methanone]
38 nM	5 nM	COc1ncc(N2CCOc3cnc(O[C@H]4CCN(C(=O)C5CCOCC5)C4)cc32)cc1C(F)F [Example F8, {(S)-3-[1-(5-Difluoromethyl-6-methoxy-pyridin-3-yl)-2,3-dihydro-1H-pyrido[3,4-b][1,4]oxazin-7-yloxy]-pyrrolidin-1-yl}-(tetrahydro-pyran-4-yl)-methanone]
28 nM	< 3 nM	COCC(=O)N1CC[C@H](Oc2cc3c(cn2)OCCN3c2cnc(OC)c(C(F)F)c2)C1 [Example F9, 1-{(S)-3-[1-(5-Difluoromethyl-6-methoxy-pyridin-3-yl)-2,3-dihydro-1H-pyrido[3,4-b][1,4]oxazin-7-yloxy]-pyrrolidin-1-yl}-2-methoxy-ethanone]
39 nM	< 3 nM	COc1ncc(N2CCOc3cnc(O[C@H]4CCN(C(=O)c5cn(C)cn5)C4)cc32)cc1C(F)F [Example F10, {(S)-3-[1-(5-Difluoromethyl-6-methoxy-pyridin-3-yl)-2,3-dihydro-1H-pyrido[3,4-b][1,4]oxazin-7-yloxy]-pyrrolidin-1-yl}-(1-methyl-1H-imidazol-4-yl)-methanone]
78 nM	76 nM	COCC(=O)N1CC[C@H](Oc2cc3c(cn2)OCCN3c2cnc(S(C)(=O)=O)c(C(F)F)c2)C1 [Example F11, 1-{(S)-3-[1-(5-Difluoromethyl-6-methanesulfonyl-pyridin-3-yl)-2,3-dihydro-1H-pyrido[3,4-b][1,4]oxazin-7-yloxy]-pyrrolidin-1-yl}-2-methoxy-ethanone]
704 nM	24 nM	COc1ncc(N2CCOc3cnc(O[C@H]4CCN(C(=O)C5CCS(=O)(=O)CC5)C4)cc32)cc1C#N [Example F13, 5-{7-[(S)-1-(1,1-Dioxo-hexahydro-1lambda*6*-thiopyran-4-carbonyl)-pyrrolidin-3-yloxy]-2,3-dihydro-pyrido[3,4-b][1,4]oxazin-1-yl}-2-methoxy-nicotinonitrile]
372 nM	56 nM	COc1ncc(N2CCOc3cnc(O[C@H]4CCN(C(=O)c5ncn(C)c5N)C4)cc32)cc1C(F)(F)F [Example G3, (5-Amino-1-methyl-1H-imidazol-4-yl)-{(S)-3-[1-(6-methoxy-5-trifluoromethyl-pyridin-3-yl)-2,3-dihydro-1H-pyrido[3,4-b][1,4]oxazin-7-yloxy]-pyrrolidin-1-yl}-methanone]
913 nM	13 nM	Cc1cc(N2CCOc3ccc(O[C@H]4CCN(C(=O)C5CCS(=O)(=O)C5)C4)cc32)cnc1S(C)(=O)=O (stereo partly shown) [Example H2]
842 nM	18 nM	COc1ncc(N2CCOc3ccc(O[C@H]4CCN(C(=O)C5CCS(=O)(=O)CC5)C4)c(F)c32)cc1C [Example I1, (1,1-Dioxo-hexahydro-1lambda*6*-thiopyran-4-yl)-{(S)-3-[5-fluoro-4-(6-methoxy-5-methyl-pyridin-3-yl)-3,4-dihydro-2H-benzo[1,4]oxazin-6-yloxy]-pyrrolidin-1-yl}-methanone]
308 nM	5 nM	COc1ncc(N2CCOc3ccc(O[C@H]4CCN(C(=O)C5CCS(=O)(=O)CC5)C4)c(F)c32)cc1C(F)F [Example I2]
836 nM	6 nM	Cc1cc(N2CCOc3ccc(O[C@H]4CCN(C(=O)C5CCOCC5)C4)c(F)c32)cnc1S(C)(=O)=O [Example I3]
998 nM	65 nM	COc1ncc(N2CCOc3ccc(O[C@H]4CCN(C(=O)[C@H]5CCN(C(C)=O)C5)C4)cc32)cc1C#N [J, 5-{6-[(S)-1-((S)-1-Acetyl-pyrrolidine-3-carbonyl)-pyrrolidin-3-yloxy]-2,3-dihydro-benzo[1,4]-oxazin-4-yl}-2-methoxy-nicotinonitrile]
393 nM	< 3 nM	COc1ncc(N2CCOc3ccc(O[C@H]4CCN(C(=O)[C@@H]5CCN(C(C)=O)C5)C4)cc32)cc1C#N [K, 5-{6-[(S)-1-((R)-1-Acetyl-pyrrolidine-3-carbonyl)-pyrrolidin-3-yloxy]-2,3-dihydro-benzo[1,4]oxazin-4-yl}-2-methoxy-nicotinonitrile]
538 nM	13 nM	COc1ncc(N2CCOc3ccc(O[C@H]4CCN(C(=O)[C@@H]5CCN(C)C5)C4)cc32)cc1C#N [L, 2-Methoxy-5-{6-[(S)-1-((R)-1-methyl-pyrrolidine-3-carbonyl)-pyrrolidin-3-yloxy]-2,3-dihydro-benzo[1,4]oxazin-4-yl}-nicotinonitrile]

SMILES	IC50 (PI3K alpha)	IC50 (PI3K delta)
COc1ncc(N2CCOc3cnc(OC4CCN(C(=O)C5CCS(=O)(=O)CC5)C4)cc32)cc1C (stereo not shown) [Example F12, (1,1-Dioxo-hexahydro-1lambda*6*-thiopyran-4-yl)-{3-[1-(6-methoxy-5-methyl-pyridin-3-yl)-2,3-dihydro-1H-pyrido[3,4-b][1,4]oxazin-7-yloxy]-pyrrolidin-1-yl}-methanone]	440 nM	< 3 nM
COc1ncc(N2CCOc3cnc(O[C@H]4CCN(C(=O)c5cn6ccsc6n5)C4)cc32)cc1C(F)(F)F [Example G1, Imidazo[2,1-b]thiazol-6-yl-{(S)-3-[1-(6-methoxy-5-trifluoromethyl-pyridin-3-yl)-2,3-dihydro-1H-pyrido[3,4-b][1,4]oxazin-7-yloxy]-pyrrolidin-1-yl}-methanone]	49 nM	17 nM
COc1ncc(N2CCOc3cnc(O[C@@H]4CCN(C(=O)C5CCS(=O)(=O)CC5)C4)cc32)cc1C [Example G2, (1,1-Dioxo-hexahydro-1lambda*6*-thiopyran-4-yl)-{(R)-3-[1-(6-methoxy-5-methyl-pyridin-3-yl)-2,3-dihydro-1H-pyrido[3,4-b][1,4]oxazin-7-yloxy]-pyrrolidin-1-yl}-methanone]	1200 nM	207 nM
COc1ncc(N2CC(C)Oc3ccc(O[C@H]4CCN(C(=O)C5CCOCC5)C4)cc32)cc1C#N (stereo partly drawn) [Example O1, 2-Methoxy-5-{2-methyl-6-[(S)-1-(tetrahydro-pyran-4-carbonyl)-pyrrolidin-3-yloxy]-2,3-dihydro-benzo[1,4]oxazin-4-yl}-nicotinonitrile]	4570 nM	53 nM
